Reference: patent publication US5719135A, “Substituted 3-arylidene-7-azaoxindole compounds and process for their preparation” (Pharmacia S.p.A., priority 1994, dated 1998)

Legend:
[1] = target: p45 v-abl tyrosine kinase; experiment: p45 v-abl Kinase Assay; type: biochemical, Abelson murine leukemia virus; conditions: in-vitro; (Val^5)-Angiotensin II peptide 2 mM, ATP 50 μM, pH 8.0, 30° C.
Procedure: p45 v-abl Kinase Purification
The enzyme used in our tests was the p45 v-abl tyrosine kinase which represents the catalytic domain of the Abelson tyrosine kinase (isolated form the Abelson murine leukemia virus). The p45 v-abl kinase was produced and isolated as described by Wang at al. in J. Biol. Chem. 260, 64 (1985) and by Ferguson et al. in J. Biol. Chem. 260, 3652 (1985) and in Biochem. J. 257, 321 (1989).
(Val^5)-Angiotensin II phosphorylation was performed by incubation with 40 ng of purified abl-kinase and (γ^32 -p)ATP, in 50 μl of buffer containing Tris-Hcl 25 mM, pH 8.0. MgCl2 10 mM and dithiothreitol 0.1 mM (kinase buffer). The reaction mixture was incubated for the indicated time at 30° C. and the reaction stopped by adding 50 μl of 5% trichloroacetic acid. After a brief incubation on ice, tubes were centrifuged. The supernatants were spotted on phosphocellulose paper squares (Whatman P-81) and washed extensively in acetic acid. The radioactivity bound to dried phosphocellulose squares was measured in a liquid scintillation counter. IC50 values were calculated from triplicated determinations of each experimental point. Each inhibitor was tested at concentrations ranging from […] in the presence of fixed concentrations of peptide (2 mM) and ATP (50 μM.
(§1) The inhibitory activity data for a representative group of compounds according to the present invention, obtained both in the in-vitro p45 v-abl kinase assay and in the […] human chronic myeloid leukemia K562 cell growth inhibition assay described above, are set out in the following Table I.

K562 cells = experiment: K562 Cell Growth Inhibition Assay; type: cell-based; conditions: human chronic myeloid leukemia K562 cells, 72 h, 10000/well
Procedure: K562 Cell Growth Inhibition Assay
K562 cells, a human myelogenous leukemia cell line, were seeded into a 24 wells tissue culture plate (Falcon 3047) (10000/well) in the presence of increasing concentrations of the compounds. After 72 h, cells were harvested and were counted using a cell counter (Coulter Counter-ZM). The percent of inhibition was evaluated in respect to the untreated control cells.
as §1

SMILES	IC50 [1] [µM]	IC50 (K562 cells) [µM]
O=C1Nc2ncccc2C1=Cc1cc(O)c2c(c1O)CCCC2 [3-[(1,4-dihydroxy-5,6,7,8-tetrahydronaphth-2-yl)methylene]-7-azaoxindole]	2.14	2.36
Cc1[nH]c2ccccc2c1C=C1C(=O)Nc2ncccc21 [3-[(2-methyl-3-indolyl)methylene]-7-azaoxindole]	0.04	2.61
COc1ccc2[nH]cc(C=C3C(=O)Nc4ncccc43)c2c1 [3-[(5-methoxy-3-indolyl)methylene]-7-azaoxindole]	0.03	3.21
O=C1Nc2ncccc2C1=Cc1c[nH]c2ncccc12 [3-[(7-azaindol-3-yl)methylene]-7-azaoxindole]	–	3.89
